The values that follow come from PubChem BioAssay (NCI).

Among the test systems are CCRF-CEM leukemia; HOP-92 NSCLC; KM12 colon; MOLT-4 leukemia; NCI-H226 lung; OVCAR-4 ovarian; OVCAR-5 ovarian; SK-MEL-2 melanoma; SNB-19 CNS; TK-10 renal.
What all share (test): NCI-60 cell line screen, 48 h

Each structure is given as a SMILES string.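 Protocol summary: plate cells (96-well), add compound at 5 concentrations, incubate 48 h, interpolate endpoints linearly. GI50: concentration for 50% inhibition of growth. At the TGI there is no net growth.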

As for `CCn1c(-c2nonc2N)nc2c(N3CCCC3)nccc21`, the GI50 in the experiment with CCRF-CEM leukemia was 18.4 µM; with HOP-92 NSCLC, 3.88 µM; with KM12 colon, 15.7 µM; with MOLT-4 leukemia it was 10.5 µM; in the experiment with NCI-H226 lung, 10 µM; with OVCAR-4 ovarian it was 10.3 µM. The GI50 in the experiment on OVCAR-5 ovarian was 12.5 µM; in the experiment with SK-MEL-2 melanoma, above 25 µM; in the experiment with SNB-19 CNS, 19.4 µM; in the experiment with TK-10 renal it was 9.31 µM. The TGI is above 25 µM with CCRF-CEM leukemia; 22.9 µM with HOP-92 NSCLC; above 25 µM in the experiment on KM12 colon; above 25 µM in the experiment with MOLT-4 leukemia; above 25 µM with NCI-H226 lung; above 25 µM in the experiment on OVCAR-4 ovarian. Further, the TGI in the experiment with OVCAR-5 ovarian, in the experiment on SK-MEL-2 melanoma, with SNB-19 CNS and in the experiment on TK-10 renal was above 25 µM in each case.

Regarding `O=C1Nc2cc(F)ccc2C1=O`, the TGI in the experiment on CCRF-CEM leukemia, in the experiment on HOP-92 NSCLC, in the experiment with KM12 colon, in the experiment on MOLT-4 leukemia, with NCI-H226 lung and with OVCAR-4 ovarian was above 100 µM each time. The TGI in the experiment with OVCAR-5 ovarian, with SK-MEL-2 melanoma, with SNB-19 CNS and with TK-10 renal was above 100 µM in each case.

For `O=C[C@@H](CO)O[C@H](C=O)n1cnc2c(=O)[nH]cnc21`, the TGI came out at 559 µM in the experiment with CCRF-CEM leukemia; 865 µM in the experiment with HOP-92 NSCLC; 1270 µM in the experiment with KM12 colon; 686 µM in the experiment on MOLT-4 leukemia; 1780 µM in the experiment with NCI-H226 lung; 1150 µM in the experiment on OVCAR-4 ovarian. Besides, the TGI in the experiment with OVCAR-5 ovarian stood at 1820 µM; with SK-MEL-2 melanoma, 1400 µM; in the experiment with SNB-19 CNS it was 2150 µM; in the experiment on TK-10 renal, 1830 µM.

Take `O/N=C/c1ccc(O)c(O)c1`: the TGI in the experiment with CCRF-CEM leukemia, in the experiment with HOP-92 NSCLC, with KM12 colon, with MOLT-4 leukemia, in the experiment on NCI-H226 lung and in the experiment with OVCAR-4 ovarian was above 100 µM in each case. The TGI with OVCAR-5 ovarian, in the experiment on SK-MEL-2 melanoma, in the experiment with SNB-19 CNS and in the experiment on TK-10 renal was above 100 µM throughout.

Regarding `COc1cc(/C=N/N=C(\N)NO)c([N+](=O)[O-])cc1OC`, the TGI is above 100 µM with CCRF-CEM leukemia; 91.7 µM with HOP-92 NSCLC; above 100 µM in the experiment on KM12 colon; above 100 µM in the experiment with MOLT-4 leukemia; 54.4 µM with NCI-H226 lung; above 100 µM in the experiment with OVCAR-4 ovarian. The TGI in the experiment on OVCAR-5 ovarian, with SK-MEL-2 melanoma, in the experiment on SNB-19 CNS and in the experiment with TK-10 renal was above 100 µM throughout.

As to `COC(=O)N[C@H]1CCc2c(Cl)c(OC)c(OC)c(OC)c2-c2ccc(SC)c(=O)cc21`, the GI50 in the experiment with CCRF-CEM leukemia is below 0.01 µM; with HOP-92 NSCLC, 0.0199 µM; in the experiment with KM12 colon it was below 0.01 µM; in the experiment with MOLT-4 leukemia, below 0.01 µM; with NCI-H226 lung it was below 0.01 µM; in the experiment on OVCAR-4 ovarian, 0.0813 µM. For the same molecule, the GI50 in the experiment on OVCAR-5 ovarian was below 0.01 µM; in the experiment with SK-MEL-2 melanoma, 5.89 µM; in the experiment with SNB-19 CNS, below 0.01 µM; in the experiment on TK-10 renal, 15.8 µM. Also, the TGI in the experiment on CCRF-CEM leukemia was above 82.7 µM; in the experiment on HOP-92 NSCLC, 18.6 µM; with KM12 colon it was 18.8 µM; with MOLT-4 leukemia, above 76.8 µM; with NCI-H226 lung, 14.2 µM; in the experiment with OVCAR-4 ovarian, above 100 µM. Besides, the TGI was above 94.8 µM in the experiment on OVCAR-5 ovarian, above 70.3 µM with SK-MEL-2 melanoma, above 100 µM in the experiment on SNB-19 CNS and above 100 µM in the experiment on TK-10 renal.

In the case of `COc1ccc(-c2cc(=O)c3c(O)c(OC)c(OC)c(OC)c3o2)cc1`, the TGI is above 100 µM with CCRF-CEM leukemia; above 82.8 µM in the experiment with HOP-92 NSCLC; 44.4 µM in the experiment with KM12 colon; above 100 µM with MOLT-4 leukemia; above 100 µM with NCI-H226 lung; above 100 µM in the experiment on OVCAR-4 ovarian. In addition, the TGI in the experiment on OVCAR-5 ovarian was above 100 µM; in the experiment on SK-MEL-2 melanoma, above 81.3 µM; in the experiment with SNB-19 CNS, above 100 µM; with TK-10 renal, above 100 µM.

On to `Cc1ccc(C(=O)NC2CC2)cc1-c1ccc2[nH]ncc2c1`, for which the GI50 in the experiment with CCRF-CEM leukemia was above 25 µM; in the experiment with HOP-92 NSCLC it was 6.22 µM; in the experiment with KM12 colon it was above 25 µM; with MOLT-4 leukemia, above 25 µM; in the experiment on NCI-H226 lung, above 25 µM; in the experiment on OVCAR-4 ovarian, above 25 µM. Besides, the GI50 in the experiment on OVCAR-5 ovarian, in the experiment with SK-MEL-2 melanoma, in the experiment with SNB-19 CNS and in the experiment with TK-10 renal was above 25 µM throughout. The TGI with CCRF-CEM leukemia, with HOP-92 NSCLC, in the experiment on KM12 colon, in the experiment on MOLT-4 leukemia, in the experiment with NCI-H226 lung and in the experiment on OVCAR-4 ovarian was above 25 µM each time. Moreover, the TGI in the experiment on OVCAR-5 ovarian, in the experiment on SK-MEL-2 melanoma, in the experiment on SNB-19 CNS and in the experiment with TK-10 renal was above 25 µM in each case.

With `CC1(C)CCC[C@]2(C)c3ccccc3C(=O)CC12` (stereo not given in full), the GI50 in the experiment on CCRF-CEM leukemia was 31.7 µM; with HOP-92 NSCLC, 60.8 µM; in the experiment on KM12 colon, 23.8 µM; with MOLT-4 leukemia, 75.8 µM; in the experiment on NCI-H226 lung it was 22.9 µM; with OVCAR-4 ovarian it was above 100 µM. Moreover, the GI50 was above 100 µM in the experiment on OVCAR-5 ovarian, 22 µM with SK-MEL-2 melanoma, 49.6 µM in the experiment on SNB-19 CNS and 69 µM in the experiment on TK-10 renal. Also, the TGI in the experiment with CCRF-CEM leukemia, with HOP-92 NSCLC, in the experiment with KM12 colon, with MOLT-4 leukemia, in the experiment on NCI-H226 lung and with OVCAR-4 ovarian was above 100 µM throughout. Besides, the TGI was above 100 µM in the experiment with OVCAR-5 ovarian, 61.3 µM in the experiment on SK-MEL-2 melanoma, above 100 µM in the experiment on SNB-19 CNS and above 100 µM in the experiment on TK-10 renal.
